Numbered stars: 1 amine (or outer) side, 2 acyl side, 3 side chain; on linkers, the order of the positions; unused ones are H or OH. Bridge positions count the residues as written; N and C are the ends. Side chains are listed from the residue outwards. Peptide text beside a SMILES is read from it. * marks the point of attachment. C20 diacid = O=C(O)CCCCCCCCCCCCCCCCCCC(=O)*; γGlu = O=C(O)[C@H](CCC(=O)[*:2])N[*:1]; AEEA = NCCOCCOCC(=O)O
Legend:
[1] = biological target: T1, human amylin 3(a) receptor (human calcitonin receptor + RAMP-3) in BHK570 cells (Homo sapiens, UniProt O60896+P30988); experiment: ASSAY (II)a functional assay, human amylin receptor (CRE luciferase); type: cell-based; conditions: for EC50: human amylin receptor functional potency, assay (II), read-out: hAmylin-R funct. EC50
T1 construct: expressed in transfected cells
Procedure, shortened: (§1)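 Receptor activation is measured as cAMP-driven CRE-luciferase expression in BHK cells expressing the calcitonin receptor, with RAMP-3 co-expressed to form the amylin 3(a) receptor. Cells are exposed to compound for 3 hours at 37° C, and luciferase is then quantified by luminescence.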

[2] = biological target: T2, human calcitonin (a) receptor in BHK570 cells (Homo sapiens, UniProt P30988); experiment: ASSAY (II)a functional assay, human calcitonin receptor (CRE luciferase); type: cell-based; conditions: read-out: hCTR funct. EC50
T2 construct: expressed in transfected cells
T2 sequence (P30988 25-474): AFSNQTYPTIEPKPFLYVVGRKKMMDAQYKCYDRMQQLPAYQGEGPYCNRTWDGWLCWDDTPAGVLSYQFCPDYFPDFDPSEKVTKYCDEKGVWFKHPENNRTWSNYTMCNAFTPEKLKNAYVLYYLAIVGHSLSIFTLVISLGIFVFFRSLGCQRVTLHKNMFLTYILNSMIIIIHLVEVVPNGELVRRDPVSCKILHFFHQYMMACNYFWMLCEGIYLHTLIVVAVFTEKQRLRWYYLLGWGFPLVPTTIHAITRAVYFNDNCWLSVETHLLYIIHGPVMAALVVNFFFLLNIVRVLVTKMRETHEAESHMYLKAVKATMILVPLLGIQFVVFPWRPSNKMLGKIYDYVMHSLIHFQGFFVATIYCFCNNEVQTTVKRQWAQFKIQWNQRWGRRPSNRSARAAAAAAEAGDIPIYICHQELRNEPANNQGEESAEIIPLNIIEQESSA
Procedure, shortened: as §1

[3] = biological target: T3, human amylin receptor (membranes from Amylin 3(a)/CRE-luc cells) (Homo sapiens, UniProt O60896+P30988); experiment: ASSAY (V) binding to the human amylin receptor (SPA, 125I-rat amylin); conditions: for IC50: Table 4, read-out: hAmylin-R bind IC50;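 for all read-outs here: competition binding of cell membranes (35 ng/µL) mixed with SPA beads in 384-well plates at 40 µL total volume, read by scintillation counting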
T3 construct: expressed in transfected cells
T3 sequence (P30988 25-474): T2 sequence (P30988 25-474)
T3 sequence (O60896 24-148 partner): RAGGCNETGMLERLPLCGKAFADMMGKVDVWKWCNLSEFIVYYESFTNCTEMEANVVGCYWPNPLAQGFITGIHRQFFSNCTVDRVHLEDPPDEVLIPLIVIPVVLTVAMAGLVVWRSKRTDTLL

[4] = biological target: T4, rat amylin receptor (rat calcitonin receptor + rat RAMP 3) (Rattus norvegicus, UniProt P32214+Q9JJ73); experiment: ASSAY (VI) binding to the rat amylin receptor; conditions: for IC50: binding to rat amylin receptor, read-out: rAmylin-R bind IC50
T4 construct: expressed in transfected cells; host or cells: BHK tk'ts 13 (transient, FuGENE 6), membranes
T4 sequence (P32214 25-479 isoform P32214-2 limits assumed): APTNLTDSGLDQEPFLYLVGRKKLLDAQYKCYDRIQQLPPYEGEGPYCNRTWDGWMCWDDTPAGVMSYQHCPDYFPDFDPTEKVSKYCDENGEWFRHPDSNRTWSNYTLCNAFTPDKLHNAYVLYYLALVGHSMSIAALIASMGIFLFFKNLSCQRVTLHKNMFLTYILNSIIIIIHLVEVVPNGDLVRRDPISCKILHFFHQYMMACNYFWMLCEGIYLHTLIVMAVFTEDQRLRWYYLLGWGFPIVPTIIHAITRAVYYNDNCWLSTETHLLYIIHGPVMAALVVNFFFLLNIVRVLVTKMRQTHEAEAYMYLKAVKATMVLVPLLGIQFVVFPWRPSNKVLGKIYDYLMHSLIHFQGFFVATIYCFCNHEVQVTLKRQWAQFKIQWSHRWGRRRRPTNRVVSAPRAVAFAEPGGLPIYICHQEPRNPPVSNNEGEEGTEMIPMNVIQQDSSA
T4 sequence (Q9JJ73 23-147 partner): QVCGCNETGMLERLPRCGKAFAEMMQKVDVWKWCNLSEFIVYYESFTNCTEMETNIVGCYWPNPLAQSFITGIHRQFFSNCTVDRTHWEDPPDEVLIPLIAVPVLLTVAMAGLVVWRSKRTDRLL
Procedure, shortened: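 Membranes for this rat amylin receptor binding assay came from BHK tk′ts 13 cells. The cells were transiently transfected with rat calcitonin receptor using the FuGENE® 6 reagent from Roche, as the manufacturer recommends. The cells were collected approximately 48 hours after transfection, and membranes were then prepared.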

[5] = biological target: T5, human calcitonin receptor (Homo sapiens, UniProt P30988); experiment: ASSAY (VII) binding to the human calcitonin receptor (SPA, 125I-Calcitonin); conditions: read-out: hCTR bind IC50;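 note: cell membranes (35 ng/µL) combined with SPA beads in 40 µL of pH 7.4 Hepes buffer, 384-well format, signal counted on a TopCounter instrument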
T5 construct: expressed in transfected cells
T5 sequence (P30988 25-474): T2 sequence (P30988 25-474)

[6] = biological target: T6, rat calcitonin receptor (Rattus norvegicus, UniProt P32214); experiment: ASSAY (VIII) binding to the rat calcitonin receptor; conditions: Table 7, read-out: rCTR bind IC50
T6 construct: expressed in transfected cells; host or cells: BHK tk'ts 13 (transient, FuGENE 6), membranes
T6 sequence (P32214 25-479 isoform P32214-2 limits assumed): T4 sequence (P32214 25-479 isoform P32214-2 limits assumed)
Procedure, shortened: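 Receptor source: membranes from transiently transfected BHK tk′ts 13 cells expressing rat calcitonin receptor, collected roughly 48 hours after transfection.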

[7] = hCTR funct. EC50 divided by hAmylin-R funct. EC50
[8] = hCTR funct. EC50 over hAmylin-R funct. EC50
[9] = human functional selectivity: hCTR funct. EC50 / hAmylin-R funct. EC50
[10] = Table 5, selectivity, hCTR bind IC50 / hAmylin-R bind IC50
[11] = Table 7, human binding selectivity, included for comparison
[12] = Table 7, rat binding selectivity, rCTR IC50 / rAmylin-R IC50
[13] = hCTR funct. EC50 / hAmylin-R funct. EC50

SMILES	Ratio hCT/hAmylin funct. [1, 7]	Ratio hCT/hAmylin funct. [1, 8]	EC50 [1]	Ratio hCT/hAmylin funct. [1, 9]	EC50 [2]	IC50 [3]	Ratio hCT/hAmylin binding [3, 10]	Ratio hCT/hAmylin binding ([3]; Table 5a, selectivity, hCTR bind IC50 / hAmylin-R bind IC50)	Ratio hCT/hAmylin binding [3, 11]	Ratio hCT/hAmylin binding ([3]; Table 7a (preferred compounds), human binding selectivity, included for comparison)	Ratio hCT/hAmylin binding ([3]; ratio of human calcitonin receptor binding IC50 to human amylin receptor binding IC50)	IC50 ([4]; Table 7)	Ratio rCT/rAmylin binding [4, 12]	Ratio rCT/rAmylin binding ([4]; Table 7a (preferred compounds), rat binding selectivity, rCTR IC50 / rAmylin-R IC50)	Ratio rCT/rAmylin binding ([4]; ratio of rCTR bind IC50 to rAmylin-R bind IC50)	IC50 [5]	IC50 [6]	Ratio hCT/hAmylin funct. [1, 13]
CC[C@H](C)[C@H](NC(=O)[C@H](C)NC(=O)CNC(=O)[C@H](Cc1ccccc1)NC(=O)[C@H](CC(N)=O)NC(=O)[C@@H]1CCCN1C(=O)[C@H](CO)NC(=O)[C@H](CO)NC(=O)[C@H](Cc1c[nH]cn1)NC(=O)[C@H](CCCNC(=N)N)NC(=O)[C@H](CC(C)C)NC(=O)[C@H](Cc1ccccc1)NC(=O)[C@H](CCC(=O)O)NC(=O)[C@H](C)NC(=O)[C@H](CC(C)C)NC(=O)[C@H](CCCNC(=N)N)NC(=O)[C@H](CCC(N)=O)NC(=O)[C@@H](NC(=O)[C@H](C)NC(=O)[C@@H]1CSSC[C@H](NC(=O)[C@H](CCCCN)NC(=O)CC[C@H](NC(=O)CCCCCCCCCCCCCCCCCCC(=O)O)C(=O)O)C(=O)N[C@@H](CC(N)=O)C(=O)N[C@@H]([C@@H](C)O)C(=O)N[C@@H](C)C(=O)N[C@@H]([C@@H](C)O)C(=O)N1)[C@@H](C)O)C(=O)N1CCC[C@H]1C(=O)N[C@@H](CO)C(=O)N[C@@H](CO)C(=O)N[C@H](C(=O)N[C@@H](CC(N)=O)C(=O)N[C@H](C(=O)NCC(=O)N[C@@H](Cc1c[nH]cn1)C(=O)N[C@@H](CC(N)=O)C(=O)N[C@H](C(=O)N[C@@H](Cc1ccc(O)cc1)C(N)=O)[C@@H](C)O)C(C)C)[C@@H](C)O [Example 17] ({C20 diacid-γGlu}-KCNTATCATQRLAEFLRHSSPNFGAIPSSTNVGHNTY-NH2; disulfide 2-7 (inferred))	8.8	8.8	0.268 nM	8.8	2.35 nM	0.878 nM	12.5	12.5	12.5	12.5	12.5	2.71 nM	35.9	35.9	35.9	10.9 nM	97.2 nM	
CC[C@H](C)[C@H](NC(=O)[C@H](C)NC(=O)CNC(=O)[C@H](Cc1ccccc1)NC(=O)[C@H](CC(N)=O)NC(=O)[C@@H]1CCCN1C(=O)[C@H](CO)NC(=O)[C@H](CO)NC(=O)[C@H](Cc1c[nH]cn1)NC(=O)[C@H](CCCNC(=N)N)NC(=O)[C@H](CC(C)C)NC(=O)[C@H](Cc1ccccc1)NC(=O)[C@H](CCC(=O)O)NC(=O)[C@H](C)NC(=O)[C@H](CC(C)C)NC(=O)[C@H](CCCNC(=N)N)NC(=O)[C@H](CCC(N)=O)NC(=O)[C@@H](NC(=O)[C@H](C)NC(=O)[C@@H]1CSSC[C@H](NC(=O)[C@H](CCCCN)NC(=O)COCCOCCNC(=O)COCCOCCNC(=O)CC[C@H](NC(=O)CCCCCCCCCCCCCCCCCCC(=O)O)C(=O)O)C(=O)N[C@@H](CC(N)=O)C(=O)N[C@@H]([C@@H](C)O)C(=O)N[C@@H](C)C(=O)N[C@@H]([C@@H](C)O)C(=O)N1)[C@@H](C)O)C(=O)N1CCC[C@H]1C(=O)N[C@@H](CO)C(=O)N[C@@H](CO)C(=O)N[C@H](C(=O)N[C@@H](CC(N)=O)C(=O)N[C@H](C(=O)NCC(=O)N[C@@H](CO)C(=O)N[C@@H](CC(N)=O)C(=O)N[C@H](C(=O)N1CCC[C@H]1C(N)=O)[C@@H](C)O)C(C)C)[C@@H](C)O [Example 20] ({C20 diacid-γGlu-AEEA-AEEA}-KCNTATCATQRLAEFLRHSSPNFGAIPSSTNVGSNTP-NH2; disulfide 2-7)	3.6	3.6	0.08 nM	3.6	0.285 nM	0.217 nM	3.6		3.6				6.4			0.787 nM		3.6
CC[C@H](C)[C@H](NC(=O)[C@H](C)NC(=O)CNC(=O)[C@H](Cc1ccccc1)NC(=O)[C@H](CC(N)=O)NC(=O)[C@@H]1CCCN1C(=O)[C@H](CO)NC(=O)[C@H](CO)NC(=O)[C@H](Cc1c[nH]cn1)NC(=O)[C@H](CCCNC(=N)N)NC(=O)[C@H](CC(C)C)NC(=O)[C@H](Cc1ccccc1)NC(=O)[C@H](Cc1c[nH]cn1)NC(=O)[C@H](C)NC(=O)[C@H](CC(C)C)NC(=O)[C@H](CCCNC(=N)N)NC(=O)[C@H](CCC(N)=O)NC(=O)[C@@H](NC(=O)[C@H](C)NC(=O)[C@@H]1CSSC[C@H](NC(=O)[C@@H](N)CCCCNC(=O)CC[C@H](NC(=O)CCCCCCCCCCCCCCCCCCC(=O)O)C(=O)O)C(=O)N[C@@H](CC(N)=O)C(=O)N[C@@H]([C@@H](C)O)C(=O)N[C@@H](C)C(=O)N[C@@H]([C@@H](C)O)C(=O)N1)[C@@H](C)O)C(=O)N1CCC[C@H]1C(=O)N[C@@H](CO)C(=O)N[C@@H](CO)C(=O)N[C@H](C(=O)N[C@@H](CC(N)=O)C(=O)N[C@H](C(=O)NCC(=O)N1CCC[C@H]1C(=O)N[C@@H](CC(N)=O)C(=O)N[C@H](C(=O)N1CCC[C@H]1C(N)=O)[C@@H](C)O)C(C)C)[C@@H](C)O [Example 115] (H-K([γGlu-C20 diacid])CNTATCATQRLAHFLRHSSPNFGAIPSSTNVGPNTP-NH2; disulfide 2-7 (inferred); N-terminus assumed)	0.8	0.8	0.052 nM	0.8	0.04 nM	0.131 nM	1.2		1.2			0.125 nM	3.0			0.157 nM		0.8
